Assay results taken from patent US20250144067A1, “PERSONALIZED STARVATION THERAPY FOR CANCER” (Faeth Therapeutics, Inc., priority 2021, published 2025).
Structures can show the parent of a compound that is named as a salt. Where two headings read alike, the source gives them in different places. Ends that are not written are not given here.

Legend:
[1] = tested on: NCI-H292 lung cancer cells; assay: FDA drug screening, complete media vs cholesterol-free media with simvastatin (TABLE 2); type: cell-based, human
[2] = tested on: NCI-H292 lung cancer cells; assay: FDA drug screening, complete media vs cholesterol-free media without statin (TABLE 1); type: cell-based, human
[3] = NCI-H292 cells, drug in cholesterol-free media with simvastatin 0.04 μM
[4] = NCI-H292 cells, drug in complete media
[5] = complete media vs cholesterol-free media + simvastatin (0.04 μM), >0 enhanced anti-cancer activity, about 0 neutral, <0 antagonist
[6] = NCI-H292 cells, cholesterol-free media without statin
[7] = complete vs cholesterol-free media, greater than 0 enhanced anti-cancer activity, about 0 neutral, below 0 antagonists
[8] = NCI-H292 cells, cholesterol-free media with simvastatin 0.04 μM, FDA drug library screen (TABLE 2)
[9] = NCI-H292 cells, complete media, FDA drug library screen (TABLE 2)
[10] = complete media minus cholesterol-free media + simvastatin (0.04 μM), >0 enhanced anti-cancer activity, about 0 neutral, <0 antagonist
[11] = NCI-H292 cells, cholesterol-free media without statin, FDA drug library screen
[12] = NCI-H292 cells, complete media, FDA drug library screen
[13] = complete vs cholesterol-free media, >0 enhanced anti-cancer activity, about 0 neutral, <0 antagonist
[14] = NCI-H292 cells, FDA drug library screen, cholesterol-free media with simvastatin 0.04 μM
[15] = NCI-H292 cells, FDA drug library screen, complete media
[16] = NCI-H292 cells, FDA library drug in cholesterol-free media with simvastatin 0.04 μM
[17] = NCI-H292 cells, FDA library drug in complete media
[18] = Complete minus Cholesterol-free, greater than 0 enhanced anti-cancer activity, about 0 neutral, below 0 antagonist
[19] = NCI-H292 cells, FDA drug library screen, cholesterol-free media without statin
[20] = Complete minus Cholesterol-free, >0 enhanced anti-cancer activity, about 0 neutral, <0 antagonist
[21] = Complete minus Cholesterol-free, greater than 0 enhanced anti-cancer activity, about 0 neutral, below 0 antagonists
[22] = NCI-H292 cells in cholesterol-free media without statin
[23] = NCI-H292 cells in complete media
[24] = complete media vs cholesterol-free media + simvastatin (0.04 μM), […]
[25] = complete vs cholesterol-free media, […]
[26] = complete media minus cholesterol-free media + simvastatin, >0 enhanced anti-cancer activity, about 0 neutral, <0 antagonist
[27] = complete media minus cholesterol-free media + simvastatin (0.04 μM), […]
[28] = Complete minus Cholesterol-free, […]
[29] = NCI-H292 cells, cholesterol-free media with simvastatin 0.04 μM, cell growth value in FDA drug screen
[30] = NCI-H292 cells, complete media, cell growth value in FDA drug screen

CC(Cc1cccc(C(F)(F)F)c1)NCCOC(=O)c1ccccc1 (stereo not drawn) [Benfluorex (hydrochloride)]
Cholesterol-free media + simvastatin (0.04 μM) [1, 3]: 1.041
Complete Media [1, 4]: 0.8151
Difference [1, 5]: −0.23
Cholesterol-free [2, 6]: 1.106
Complete ([2]; NCI-H292 cells, complete media): 0.6694
Difference [2, 7]: −0.44

O=C(O)CCC(=O)O [Succinic acid]
Cholesterol-free media + simvastatin (0.04 μM) [1, 8]: 1.729
Complete Media [1, 9]: 1.686
Difference [1, 10]: −0.04
Cholesterol-free [2, 11]: 0.9807
Complete [2, 12]: 1.143
Difference [2, 13]: 0.16

CC(=O)Nc1ccc(OC(=O)c2ccccc2OC(C)=O)cc1 [Benorilate]
Cholesterol-free media + simvastatin (0.04 μM) [1, 14]: 1.253
Complete Media [1, 15]: 1.11
Difference [1, 5]: −0.14
Cholesterol-free [2, 6]: 1.212
Complete ([2]; NCI-H292 cells, complete media): 0.8832
Difference [2, 7]: −0.33

COc1ccccc1OCCNCC(O)COc1cccc2[nH]c3ccccc3c12 (stereo not drawn) [Carvedilol]
Cholesterol-free media + simvastatin (0.04 μM) [1, 16]: 1.448
Complete Media [1, 17]: 0.9665
Difference [1, 5]: −0.48
Difference [2, 18]: −0.18
Cholesterol-free [2, 19]: 1.133
Complete [2, 15]: 0.9579

CCC(=O)c1c(O)cc(O)cc1O [Flopropione]
Cholesterol-free media + simvastatin (0.04 μM) [1, 8]: 1.103
Complete Media [1, 9]: 1.044
Difference [1, 10]: −0.06
Difference [2, 20]: −0.07
Cholesterol-free [2, 11]: 1.019
Complete [2, 12]: 0.9515

CC[C@H]1CN2CCc3cc(OC)c(OC)cc3[C@@H]2C[C@@H]1C[C@H]1NCCc2cc(OC)c(OC)cc21 [Emetine (dihydrochloride hydrate)]
Cholesterol-free media + simvastatin (0.04 μM) [1]: 0.05048
Complete Media [1]: 0.03214
Difference [1]: −0.02
Cholesterol-free [2]: 0.02305
Complete [2]: 0.04288
Difference [2]: 0.02

CC[C@@H]1CN(C(=O)NCC(F)(F)F)C[C@@H]1c1cnc2cnc3[nH]ccc3n12 [Upadacitinib]
Cholesterol-free media + simvastatin (0.04 μM) [1, 3]: 0.7425
Complete Media [1, 4]: 0.5732
Difference [1, 5]: −0.17
Difference [2, 21]: −0.51
Cholesterol-free [2, 22]: 1.213
Complete [2, 23]: 0.7003

CC(C)[N+]1(C)[C@@H]2CC[C@H]1CC(OC(=O)C(CO)c1ccccc1)C2.[Br-] (stereo partly drawn) [Ipratropium (bromide)]
Cholesterol-free media + simvastatin (0.04 μM) [1, 16]: 1.536
Difference [1, 24]: −0.39
Cholesterol-free [2, 6]: 1.233
Complete ([2]; NCI-H292 cells, complete media): 0.8969
Difference [2, 25]: −0.34

CCOc1ccc(Cc2cc([C@]34OC[C@](CO)(O3)[C@@H](O)[C@H](O)[C@H]4O)ccc2Cl)cc1.O=C1CC[C@@H](C(=O)O)N1 [Ertugliflozin L-pyroglutamic acid]
Cholesterol-free media + simvastatin (0.04 μM) [1, 3]: 1.012
Complete Media [1, 4]: 0.8266
Difference [1, 24]: −0.19
Cholesterol-free [2, 11]: 1.319
Complete [2, 12]: 1.576
Difference [2, 25]: 0.26

Cc1cc(C(=O)NNCc2ccccc2)no1 [Isocarboxazid]
Cholesterol-free media + simvastatin (0.04 μM) [1, 8]: 1.551
Complete Media [1, 9]: 1.506
Difference [1, 10]: −0.05
Cholesterol-free [2, 11]: 0.685
Complete [2, 12]: 1.428
Difference [2, 13]: 0.74

NCCCC(O)(P(=O)(O)O)P(=O)(O)O [Alendronate (sodium hydrate)]
Cholesterol-free media + simvastatin (0.04 μM) [1, 14]: 0.388
Difference [1, 26]: 0.78
Cholesterol-free [2, 11]: 0.1249
Complete [2, 12]: 0.2776
Difference [2, 13]: 0.15

CC[C@@H]([C@H](C)O)n1ncn(-c2ccc(N3CCN(c4ccc(OC[C@@H]5CO[C@@](Cn6cncn6)(c6ccc(F)cc6F)C5)cc4)CC3)cc2)c1=O [Posaconazole]
Cholesterol-free media + simvastatin (0.04 μM) [1, 14]: 1.5
Complete Media [1, 15]: 1.904
Difference [1, 26]: 0.40
Difference [2, 21]: −0.60
Cholesterol-free [2, 22]: 1.481
Complete [2, 23]: 0.8852

C=C[C@H]1C[N@@]2CC[C@H]1C[C@H]2[C@H](O)c1ccnc2ccc(OC)cc12 [Quinine]
Difference [1, 5]: −0.10
Cholesterol-free [2, 6]: 1.498
Difference [2, 7]: −0.37

Clc1ccc(C(OCCN2CCCCC2)c2ccccc2)cc1 (stereo not drawn) [Cloperastine (hydrochloride)]
Cholesterol-free media + simvastatin (0.04 μM) [1, 14]: 1.648
Complete Media [1, 15]: 1.547
Difference [1, 5]: −0.10
Difference [2, 20]: −0.28
Cholesterol-free [2, 6]: 1.087
Complete ([2]; NCI-H292 cells, complete media): 0.8022

CC(=O)O[C@H]1[C@H]2O[C@]23[C@@H]2CC[C@]4(O)C[C@@H](O)CC[C@]4(C)[C@H]2CC[C@]3(C)[C@H]1c1ccc(=O)oc1 [Cinobufotalin]
Cholesterol-free media + simvastatin (0.04 μM) [1, 8]: 0.03115
Complete Media [1, 9]: 0.01046
Difference [1, 27]: −0.02
Difference [2, 28]: −0.04
Cholesterol-free [2, 11]: 0.003242
Complete [2, 12]: −0.03407

Cc1cccc(Nc2ccncc2S(=O)(=O)NC(=O)NC(C)C)c1 [Torsemide]
Cholesterol-free media + simvastatin (0.04 μM) [1, 8]: 1.055
Complete Media [1, 9]: 0.9909
Difference [1, 10]: −0.06
Difference [2, 18]: −0.16
Cholesterol-free [2, 19]: 1.07
Complete [2, 15]: 0.914

Cc1cccc(C(C)c2cnc[nH]2)c1C (stereo not drawn) [Medetomidine (hydrochloride)]
Cholesterol-free media + simvastatin (0.04 μM) [1, 29]: 0.8752
Complete Media [1, 30]: 0.9447
Difference [1, 26]: 0.07
Cholesterol-free [2, 6]: 1.452
Complete ([2]; NCI-H292 cells, complete media): 1.139
Difference [2, 7]: −0.31

CCn1cc(C(=O)O)c(=O)c2cc(F)c(N3CCNC(C)C3)c(F)c21 (stereo not drawn) [Lomefloxacin (hydrochloride)]
Cholesterol-free media + simvastatin (0.04 μM) [1, 16]: 1.657
Complete Media [1, 17]: 0.934
Difference [1, 5]: −0.72
Cholesterol-free [2, 6]: 1.531
Difference [2, 7]: −0.37

NC(=O)c1cnccn1 [Pyrazinamide]
Cholesterol-free media + simvastatin (0.04 μM) [1, 14]: 0.9396
Complete Media [1, 15]: 0.8009
Difference [1, 5]: −0.14
Difference [2, 20]: 0.04
Cholesterol-free [2, 11]: 0.9745
Complete [2, 12]: 1.011

NC(=O)c1nc(F)c[nH]c1=O [Favipiravir]
Cholesterol-free media + simvastatin (0.04 μM) [1, 3]: 1.347
Complete Media [1, 4]: 1.105
Difference [1, 5]: −0.24
Difference [2, 20]: −0.06
Cholesterol-free [2, 11]: 1.059
Complete [2, 12]: 0.9966

CC(Cc1ccc(O)cc1)NCC(O)c1cc(O)cc(O)c1 (stereo not drawn) [Fenoterol (hydrobromide)]
Cholesterol-free media + simvastatin (0.04 μM) [1, 8]: 0.9531
Complete Media [1, 9]: 0.9512
Difference [1, 27]: 0.00
Difference [2, 28]: −0.09
Cholesterol-free [2, 19]: 1.404
Complete [2, 15]: 1.311

CC(O)c1cc(C(=O)N[C@@H](C)Cn2ccc(-c3ccc(C#N)c(Cl)c3)n2)[nH]n1 (stereo partly drawn) [Darolutamide]
Cholesterol-free media + simvastatin (0.04 μM) [1, 29]: 0.9075
Complete Media [1, 30]: 0.9966
Difference [1, 26]: 0.09
Difference [2, 20]: −0.20
Cholesterol-free [2, 6]: 1.263
Complete ([2]; NCI-H292 cells, complete media): 1.061

CC(C)COCC(CN(Cc1ccccc1)c1ccccc1)N1CCCC1 (stereo not drawn) [Bepridil hydrochloride]
Cholesterol-free media + simvastatin (0.04 μM) [1, 14]: 1.312
Complete Media [1, 15]: 1.584
Difference [1, 26]: 0.27
Difference [2, 20]: −0.19
Cholesterol-free [2, 6]: 1.009
Complete ([2]; NCI-H292 cells, complete media): 0.8157

Cyclic somatostatin (AGCKNFFWKTFTSC; not fully specified (bridges); cysteine pairing not given here; UniProt P61278 103-116, looked up)
Cholesterol-free media + simvastatin (0.04 μM) [1, 8]: 0.9769
Difference [1, 27]: −0.04
Difference [2, 28]: 0.00
Cholesterol-free [2, 11]: 1.02
Complete [2, 12]: 1.023

Phillyrin
Cholesterol-free media + simvastatin (0.04 μM) [1, 14]: 1.405
Complete Media [1, 15]: 1.262
Difference [1, 24]: −0.14
Difference [2, 28]: −0.77
Cholesterol-free [2, 22]: 1.584
Complete [2, 23]: 0.8182

CC(C)(CO)C(O)C(=O)NCCCO (racemic) [DL-Panthenol]
Cholesterol-free media + simvastatin (0.04 μM) [1, 14]: 1.177
Complete Media [1, 15]: 1.049
Difference [1, 5]: −0.13
Difference [2, 21]: −0.82
Cholesterol-free [2, 22]: 1.816
Complete [2, 23]: 0.9995

Atosiban (acetate)
Cholesterol-free media + simvastatin (0.04 μM) [1, 16]: 1.587
Difference [1, 24]: −0.52
Cholesterol-free [2, 6]: 1.199
Complete ([2]; NCI-H292 cells, complete media): 0.8162
Difference [2, 25]: −0.38

CC(=O)OCC(=O)[C@@]1(OC(C)=O)[C@@H](C)C[C@H]2[C@@H]3C[C@H](F)C4=CC(=O)C=C[C@]4(C)[C@@]3(F)[C@@H](O)C[C@@]21C [Diflorasone]
Cholesterol-free media + simvastatin (0.04 μM) [1, 14]: 0.8775
Difference [1, 26]: 0.30
Difference [2, 18]: −0.10
Cholesterol-free [2, 19]: 0.7536
Complete [2, 15]: 0.6518

CCCCN(CCCC)C(=O)CN1C[C@H](c2ccc3c(c2)OCO3)[C@@H](C(=O)O)[C@@H]1c1ccc(OC)cc1 [Atrasentan (hydrochloride)]
Cholesterol-free media + simvastatin (0.04 μM) [1, 3]: 1.092
Complete Media [1, 4]: 0.8532
Difference [1, 5]: −0.24
Difference [2, 18]: −0.17
Cholesterol-free [2, 19]: 1.198
Complete [2, 15]: 1.025
